Laboratory results from patent US20260365698A1, “STAPLED PEPTIDES FOR SENSITIZATION OF CANCER TO TREATMENT” (Purdue Research Foundation, priority 2022, published 2026).
Entries after “also recorded” stand apart in the source; their conditions may differ. Bridge positions count the residues as written; N and C are the ends. Square brackets hold non-standard residues; d marks the D form. Peptide text beside a SMILES is read from it. S5 = C=CCCC[C@](C)(N)C(=O)O

Experiments:
Nrf2 = test: Dual luciferase assay, NQO1-ARE firefly / TK-Renilla reporter; format: cell-based; settings: HEK-293T cells; for inhibition of Nrf2 activity: 16 hours, 50 μM in FIG. 4A
Method: The results are averages from three replicates.
The peptides from Example 1 were screened for Nrf2 inhibition using a previously developed dual luciferase assay. Ren et al., Brusatol enhances the efficacy of chemotherapy by inhibiting the Nrf2-mediated defense mechanism, Biological Sciences 108(4): 1433-1438 (2011). Briefly, HEK-293T cells stably expressing ARE-firefly luciferase and TK-Renilla luciferase were used. The cells were treated with different concentrations of compounds N1 (SEQ ID NO: 3), N1 S (SEQ ID NO: 6), N2 (SEQ ID NO: 4), N2S (SEQ ID NO: 7), N3 (SEQ ID NO: 5), and N3S (SEQ ID NO: 8) for 16 hours. The cells were lysed in 1× passive lysis buffer, and both firefly luciferase and Renilla luciferase activities were measured using the Promega Dual-Luciferase™ Reporter (DLR™) Assay System and a luminometer (Turner Biosystems 20/20^n Luminometer). The samples were in triplicate for all concentrations of compounds (n=3).

[1] = target: T1, Nrf2-MafG-DNA ARE complex (Homo sapiens, UniProt O15525); test: Fluorescence polarization assay with Nrf2, MafG and FAM-labeled ARE; format: biochemical; settings: 200 nM His-MBP-NRF2, 200 nM His-MafG, 20 nM FAM-labeled ARE; 'as low as'
T1 construct: listing gives 93-aa segments
Method: Briefly, a 96-well plate (VWR® Solid Bottom Assay Plates, 96-well, black) was used to encapsulate each fluorescence polarization reaction. Unless otherwise stated (i.e., ARE only, ARE+MafG), each 100-μL reaction contained 200 nM purified recombinant His-MBP-NRF2, 200 nM purified recombinant His-MafG, various concentrations of molecule, and 20 nM 5′ FAM-labeled ARE all together in 1× PBS solution.
First, NRF2 was incubated with molecule for 5 minutes with shaking, followed by the addition of MafG for another 5-minute incubation. Finally, ARE was added, and the MafG-NRF2-ARE system was incubated for 10 minutes with shaking. After incubation, the plate was placed into a plate reader (Molecular Devices SpectraMax® iD5 Multi-Mode Microplate Reader). The fluorescence polarization measurement was performed at excitation/emission values of 470:525 nm, respectively. The samples were in triplicate (n=3).

Nrf2/MafG heterodimer = Nrf2/MafG heterodimer (Homo sapiens, UniProt O15525); test: Split luciferase assay with purified MafG and Nrf2; format: biochemical; settings: in vitro, FIG. 6A; listed as NIS
Text: Data shown are from three technical replicates with standard error. The data are representative of three independent experiments. *p<0.05, **p<0.01, ***p<0.001, student's T-test compared to dimethyl sulfoxide (DMSO).

MafG = target: T2, MafG (Homo sapiens, UniProt O15525); test: Immunoprecipitation (biotinylated pull-down) assay; format: binding; settings: 20-fold unlabeled N1S
T2 construct: made in house; host or cells: E. coli Rosetta (DE3), vector pET15B, Ni-NTA purified
Method: To show direct interaction between compound NIS and MafG, an immunoprecipitation assay was carried out with His-tagged, purified MafG and biotin-labeled compound NTS peptide. Briefly, a Pierce™ Biotinylated Protein Interaction Pull-Down Kit was purchased from Thermo Fisher, and manufacturer's instructions were followed. Purified His-tagged MafG and biotin-tagged NIS were used as […] proteins. For competition experiments, 20× unlabeled NIS was added after 1 hour incubation with MafG.

[2] = test system: thioredoxin reductase 1 (TrxR1) in A549 cells; test: Western blot, TrxR1 expression; format: cell-based; settings: 72 hours
Method: After confirming the in vitro activity of NIS, its mechanism in a cellular context was examined. Western blots were carried out in the A549 non-small cell lung cancer cell line to show the effects of N1S inhibition on the protein expression of Nrf2-regulated proteins. Briefly, A549 cells were seeded in 6-well plates at a concentration of 2×10^5 cells/ml in 2.5 ml. Cells were treated the next day with either peptide at the desired concentration or DMSO. After a 72-hour incubation, cells were collected by trypsinization and centrifugation. Pellets were washed with PBS three times before the pellet was resuspended in 250 μL of RIPA buffer containing protease inhibitor and kept on ice for 30 minutes with intermittent vortex. The cells were then spun at 16,000 g for 5 minutes, and the supernatant was collected. Protein concentration of lysate was normalized with Pierce BCA Protein Assay Kit (Thermo Fisher Scientific, Waltham, MA). Equal volumes of lysate were mixed with 2× Laemmli sample buffer before separating on 4-15% Mini Protean TGX SDS-PAGE (Bio-Rad Laboratories, Hercules, CA). […]
ImageJ was used for quantification of all bands. Primary antibodies: TrxR1 (Santa Cruz Biotechnology, Dallas, TX), sc-28321, 1:100 dilution (~55 kDa band analyzed); j-actin (Cell Signaling Technology, Inc., Danvers, MA), #3700, 1:1000. […]

[3] = test system: A549 non-small cell lung cancer cells; test: Incucyte live-cell analysis of combination with cisplatin; synergy by Chou-Talalay method; format: cell-based; settings: relatively low concentrations of cisplatin, varying concentrations of N1S
Method: Cl values<1 were synergistic (red), CI values=1 were additive (green), and CI values>1 were antagonistic (not observed).
NTS, cisplatin, or a combination thereof. Error bars represent the standard deviation between three technical replicates. The data are representative of three independent experiments.
The ability of compound N1S to increase sensitivity to chemotherapeutics was examined. A549 non-small cell lung cancer cells were seeded into a Corning® 96-Well Cell Culture Plate (clear, sterile, non-treated) and incubated for 24 hours. The cells were treated with cisplatin alone, compound NIS alone, or in combination. Immediately following treatment, the cells were placed into an Incucyte® S3 Live-Cell Analysis Instrument (Sartorius AG, Gottingen, Germany) and imaged every two hours for three days. The Incucyte® S3's analytical software was used to calculate cell confluency at each time point. Synergy was determined using the Chou-Talalay method.

Sequence of Nrf2/MafG heterodimer (O15525 whole entry, one chain of several): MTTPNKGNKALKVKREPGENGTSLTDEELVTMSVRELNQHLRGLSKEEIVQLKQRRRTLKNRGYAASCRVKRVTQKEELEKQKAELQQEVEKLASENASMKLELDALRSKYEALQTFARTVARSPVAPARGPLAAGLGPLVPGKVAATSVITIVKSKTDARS
T2 sequence (O15525 whole entry): as the sequence (O15525 whole entry, one chain of several) above
T1 sequence (O15525 whole entry, one chain of several): as above

inhibition of Nrf2 activity (Nrf2): inhibit Nrf2
inhibition of Nrf2 activity (Nrf2; listed as NIS): most potent inhibition of Nrf2 activity
lowest concentration decreasing binding of the heterodimer to the DNA [1]: 0.2 µM
competition of N1S-biotin/MafG interaction by unlabeled peptide (MafG): could be competed away
SMILES: CC[C@H](C)[C@H](NC(C)=O)C(=O)N[C@H](C(=O)N[C@@H](CCC(=O)O)C(=O)N[C@@H](CC(C)C)C(=O)N[C@@H](CCC(=O)O)C(=O)N[C@@]1(C)CCCC=CCCC[C@@](C)(C(=O)N[C@@H](CC(C)C)C(=O)N[C@@H](CCCCN)C(=O)N[C@@H](CC(=O)O)C(=O)N[C@@H](CCC(=O)O)C(=O)N[C@@H](CCCCN)C(=O)N[C@@H](CCC(=O)O)C(N)=O)NC(=O)[C@H](CC(=O)O)NC(=O)[C@H](CC(C)C)NC(=O)[C@H](CC(=O)O)NC1=O)C(C)C [N1S] (Ac-IVELE[S5]DLD[S5]LKDEKE-NH2; staple 6-10)
dose response for Nrf2 inhibition (Nrf2; FIG. 4B): showed a dose-response curve for Nrf2 inhibition
inhibition of dimerization of Nrf2 with MafG (Nrf2/MafG heterodimer): inhibiting dimerization of Nrf2 with MagF in vitro in a dose-dependent manner; also recorded: inhibits its dimerization with Nrf2
TrxR1 protein expression [2]: decrease
synergy with cisplatin [3]: synergy was observed; also recorded: strong synergy
